The structures appear in SMILES notation. pIC50: −log10 of the molar value.

The target of the assay is T1, human IRAK4 (Homo sapiens, UniProt Q9NWZ3).
T1 construct: GST (N); made in house; host or cells: baculovirus-infected Hi5 (BTI-TN-5B1-4) insect cells
T1 sequence (Q9NWZ3 1-460): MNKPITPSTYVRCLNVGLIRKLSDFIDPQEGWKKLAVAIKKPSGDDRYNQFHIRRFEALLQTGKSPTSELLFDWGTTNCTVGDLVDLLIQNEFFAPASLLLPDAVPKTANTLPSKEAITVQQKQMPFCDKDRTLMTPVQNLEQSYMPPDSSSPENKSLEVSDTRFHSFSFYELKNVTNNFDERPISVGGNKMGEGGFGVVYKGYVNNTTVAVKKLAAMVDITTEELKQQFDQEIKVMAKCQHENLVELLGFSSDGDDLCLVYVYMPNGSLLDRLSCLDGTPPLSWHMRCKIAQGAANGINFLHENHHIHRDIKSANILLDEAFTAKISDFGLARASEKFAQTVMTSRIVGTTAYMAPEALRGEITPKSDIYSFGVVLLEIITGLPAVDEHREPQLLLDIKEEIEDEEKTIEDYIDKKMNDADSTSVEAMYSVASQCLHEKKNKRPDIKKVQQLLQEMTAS
The experiment in a line: Human IRAK4 kinase activity inhibition assay (IRAK4 TR-FRET assay). It is filed as biochemical. Conditions: 1 mM ATP, GST-human IRAK4, average or median values. As to the method: The IRAK4-inhibitory activity of the inventive substances was measured in the IRAK4 TR-FRET assay (TR-FRET = Time Resolved Fluorescence Resonance Energy Transfer) described hereinafter.
Recombinant fusion protein from N-terminal GST (glutathione S-transferase) and human IRAK4, expressed in baculovirus-infected insect cells (Hi5, BTI-TN-5B1-4, cell line purchased from Invitrogen, catalogue No. B855-02) and purified via affinity chromatography, was used as enzyme. The substrate used for the kinase reaction was the biotinylated peptide biotin-Ahx-[…] (C-terminus in amide form) which can be purchased, for example, from Biosyntan GmbH (Berlin-Buch). For the assay, 11 different concentrations in the range from 20 µM to 0.073 nM were prepared from a 2 mM DMSO solution of the test substance. 50 nl of the respective 100fold concentrated test compound solutions in DMSO were pipetted into a black low-volume 384-well microtitre plate or a black 1536-well microtiter plate (both Greiner Bio-One, Frickenhausen, Germany), 2 µl of a solution of IRAK4 in assay buffer [50 mM HEPES pH 7.5, 5mM MgCl2, 1.0 mM dithiothreitol, 30 µM activated sodium orthovanadate, 0.1% (w/v) of bovine gamma-globulin (BGG) 0.04% (v/v) nonidet-P40 (Sigma)] were added and the mixture was incubated for 15 min to allow prebinding of the substances to the enzyme prior to the kinase reaction. […] The concentration of the IRAK4 was adjusted to the respective activity of the enzyme and set such that the assay was carried out in the linear range. Typical concentrations were in the order of about 0.2 nM. The reaction was stopped by addition of 5 µl of a solution of TR-FRET detection reagents [0.1 µM streptavidin-XL665 (Cisbio Bioassays; France, catalogue No. 610SAXLG)] and 1.5 nM anti-phosphoserine antibody [Merck Millipore, "STK Antibody", catalogue No. 35-002] and 0.6 nM LANCE EU-W1024-labelled anti-mouse-IgG antibody (Perkin-Elmer, product No. AD0077; alternatively, it is possible to use a terbium cryptate-labelled anti-mouse-IgG antibody from Cisbio Bioassays) in aqueous EDTA solution (100 mM EDTA, 0.4 % [w/v] bovine serum albumin [BSA] in 25 mM HEPES pH 7.5). The resulting mixture was incubated at 22°C for 1 h to allow formation of a complex of the biotinylated phosphorylated substrate and the detection reagents. The amount of the phosphorylated substrate was then evaluated by measuring the resonance energy transfer from europium chelate-labelled anti-mouse-IgG antibody to streptavidin-XL665. To this end, the fluorescence emissions at 620 nm and 665 nm were measured after excitation at 350 nm in a TR-FRET measuring instrument, for example a Rubystar (BMG Labtechnologies, Offenburg, Germany) or a Viewlux (Perkin-Elmer). The ratio of the emissions at 665 nm and 622 nm was taken as a measure of the amount of phosphorylated substrate. The data were normalized (enzyme reaction without test substance = 0% inhibition; all other assay components but no enzyme = 100% inhibition).
`CC(C)(O)C1CCN(c2nc(NC3CCCS(=O)(=O)C3)nc3c2cnn3-c2cccc(C(F)(F)F)c2)CC1` (stereo not shown) [Example I-10, 2-(1-{6-[(1,1-dioxidotetrahydro-2H-thiopyran-3-yl)amino]-1-[3-(trifluoromethyl)phenyl]-1H-pyrazolo[3,4-d]pyrimidin-4-yl)piperidin-4-yl)propan-2-ol] gave a negative-log IC50 (pIC50) of 6.88.

`CC(C)(O)C1CCN(c2nc(N[C@H]3CCCNC3=O)nc3c2cnn3-c2cccc(C(F)(F)F)c2)CC1` [Example I-11-1, (3S)-3-({4-[4-(2-hydroxypropan-2-yl)piperidin-1-yl]-1-[3-(trifluoromethyl)phenyl]-1H-pyrazolo[3,4-d]pyrimidin-6-yl}amino)piperidin-2-one] showed a negative-log IC50 (pIC50) of 6.86.

The molecule `CC(C)(O)C1CCN(c2nc(N[C@@H]3CCCNC3=O)nc3c2cnn3-c2cccc(C(F)(F)F)c2)CC1` [Example I-11-2, (3R)-3-({4-[4-(2-hydroxypropan-2-yl)piperidin-1-yl]-1-[3-(trifluoromethyl)phenyl]-1H-pyrazolo[3,4-d]pyrimidin-6-yl}amino)piperidin-2-one] had a pIC50 of 6.82.

In turn, `CC(C)(O)C1CCN(c2nc(N[C@H]3CCNC3=O)nc3c2cnn3-c2cccc(C(F)(F)F)c2)CC1` [Example I-12, (3S)-3-({4-[4-(2-hydroxypropan-2-yl)piperidin-1-yl]-1-[3-(trifluoromethyl)phenyl]-1H-pyrazolo[3,4-d]pyrimidin-6-yl}amino)pyrrolidin-2-one] had a negative logarithm of the IC50 (pIC50) of 7.29.

Take `CN1CC[C@@H](Nc2nc(N3CCC(C(C)(C)O)CC3)c3cnn(-c4cccc(C(F)(F)F)c4)c3n2)C1` [Example I-13-2, 2-[1-(6-{[(3R)-1-methylpyrrolidin-3-yl]amino}-1-[3-(trifluoromethyl)phenyl]-1H-pyrazolo[3,4-d]pyrimidin-4-yl)piperidin-4-yl]propan-2-ol]: the negative logarithm of the IC50 (pIC50) was 7.49. This pIC50 lies 0.20 log units higher than the previous one.

The molecule `CC(C)(O)C1CCN(c2nc(N[C@@H]3CCNC3=O)nc3c2cnn3-c2cccc(C(F)(F)F)c2)CC1` [Example I-15, (3R)-3-({4-[4-(2-hydroxypropan-2-yl)piperidin-1-yl]-1-[3-(trifluoromethyl)phenyl]-1H-pyrazolo[3,4-d]pyrimidin-6-yl}amino)pyrrolidin-2-one] gave a pIC50 of 7.21.

On to `CC(C)(O)C1CCN(c2nc(N[C@H]3CCOC3)nc3c2cnn3-c2cccc(C(F)(F)F)c2)CC1` [Example I-16-1, 2-(1-{6-[(3S)-tetrahydrofuran-3-ylamino]-1-[3-(trifluoromethyl)phenyl]-1H-pyrazolo[3,4-d]pyrimidin-4-yl}piperidin-4-yl)propan-2-ol], for which the negative logarithm of the IC50 (pIC50) is 7.71.

`CC(C)(O)C1CCN(c2nc(N[C@@H]3CNC(=O)C3(C)C)nc3c2cnn3-c2cccc(C(F)(F)F)c2)CC1` [Example I-17, (4S)-4-({4-[4-(2-hydroxypropan-2-yl)piperidin-1-yl]-1-[3-(trifluoromethyl)phenyl]-1H-pyrazolo[3,4-d]pyrimidin-6-yl}amino)-3,3-dimethylpyrrolidin-2-one] gave a pIC50 of 6.35.

In turn, `CCC1(O)CN(c2nc(N[C@H]3CCN(C)C3)nc3c2cnn3-c2cccc(C(F)(F)F)c2)C1` [Example I-18, 3-ethyl-1-(6-{[(3S)-1-methylpyrrolidin-3-yl]amino}-1-[3-(trifluoromethyl)phenyl]-1H-pyrazolo[3,4-d]pyrimidin-4-yl)azetidin-3-ol] showed a negative-log IC50 (pIC50) of 7.74.

`CCC1(O)CN(c2nc(NC3CCS(=O)(=O)CC3)nc3c2cnn3-c2cccc(C(F)(F)F)c2)C1` [Example I-19, 1-{6-[(1,1-dioxidotetrahydro-2H-thiopyran-4-yl)amino]-1-[3-(trifluoromethyl)phenyl]-1H-pyrazolo[3,4-d]pyrimidin-4-yl}-3-ethlazetidin-3-ol] showed a pIC50 of 7.57.

As to `O=C1C[C@@H](Nc2nc(N3C[C@H](O)[C@@H](O)C3)c3cnn(-c4cccc(C(F)(F)F)c4)c3n2)CN1` [Example I-20-1, (4R)-4-({4-[(3S,4S)-3,4-dihydroxypyrrolidin-1-yl]-1-[3-(trifluoromethyl)phenyl]-1H-pyrazolo[3,4-d]pyrimidin-6-yl}amino)pyrrolidin-2-one], the negative logarithm of the IC50 (pIC50) was 6.56.

`O=C1C[C@H](Nc2nc(N3C[C@H](O)[C@@H](O)C3)c3cnn(-c4cccc(C(F)(F)F)c4)c3n2)CN1` [Example I-20-2, (4S)-4-({4-[(3S,4S)-3,4-dihydroxypyrrolidin-1-yl]-1-[3-(trifluoromethyl)phenyl]-1H-pyrazolo[3,4-d]pyrimidin-6-yl}amino)pyrrolidin-2-one] showed a pIC50 of 7.83.

`O=C1C[C@H](Nc2nc(N3CC[C@@H](N4CCOCC4)C3)c3cnn(-c4cccc(C(F)(F)F)c4)c3n2)CN1` [Example I-21, (4S)-4-({4-[(3R)-3-(morpholin-4-yl)pyrrolidin-1-yl]-1-[3-(trifluoromethyl)phenyl]-1H-pyrazolo[3,4-d]pyrimidin-6-yl}amino)pyrrolidin-2-one]: the pIC50 is 7.11. Against the preceding molecule, the pIC50 is 0.72 log units lower.

As for `CC(C)(O)CC1CCN(c2nc(N[C@@H]3CNC(=O)C3)nc3c2cnn3-c2cccc(C(F)(F)F)c2)CC1` [Example I-24, (4S)-4-({4-[4-(2-hydroxy-2-methylpropyl)piperidin-1-yl]-1-[3-(trifluoromethyl)phenyl]-1H-pyrazolo[3,4-d]pyrimidin-6-yl}amino)pyrrolidin-2-one], the pIC50 was 8.15.

`CN1CC[C@@H](Nc2nc(N3CCC(CC(C)(C)O)CC3)c3cnn(-c4cccc(C(F)(F)F)c4)c3n2)C1` [Example I-25-1, 2-methyl-1-[1-(6-{[(3R)-1-methylpyrrolidin-3-yl]amino}-1-[3-(trifluoromethyl)phenyl]-1H-pyrazolo[3,4-d]pyrimidin-4-yl)piperidin-4-yl]propan-2-ol] gave a pIC50 of 7.39.

With `CN1CC[C@H](Nc2nc(N3CCC(CC(C)(C)O)CC3)c3cnn(-c4cccc(C(F)(F)F)c4)c3n2)C1` [Example I-25-2, 2-methyl-1-[1-(6-{[(3S)-1-methylpyrrolidin-3-yl]amino}-1-[3-(trifluoromethyl)phenyl]-1H-pyrazolo[3,4-d]pyrimidin-4-yl)piperidin-4-yl]propan-2-ol], the pIC50 was 7.92.

`O=S1(=O)CCN(C2CN(c3nc(N[C@@H]4CCOC4)nc4c3cnn4-c3cccc(C(F)(F)F)c3)C2)CC1` [Example I-26-1, 4-[3-(1,1-dioxidothiomorpholin-4-yl)azetidin-1-yl]-N-[(3R)-tetrahydrofuran-3-yl]-1-[3-(trifluoromethyl)phenyl]-1H-pyrazolo[3,4-d]pyrimidin-6-amine] gave a pIC50 of 7.43.

Turning to `O=S1(=O)CCN(C2CN(c3nc(N[C@H]4CCOC4)nc4c3cnn4-c3cccc(C(F)(F)F)c3)C2)CC1` [Example I-26-2, 4-[3-(1,1-dioxidothiomorpholin-4-yl)azetidin-1-yl]-N-[(3S)-tetrahydrofuran-3-yl]-1-[3-(trifluoromethyl)phenyl]-1H-pyrazolo[3,4-d]pyrimidin-6-amine], the pIC50 was 7.24.

Consider `O=C1C[C@H](Nc2nc(N3CCOCC3)c3cnn(-c4cccc(C(F)(F)F)c4)c3n2)CN1` [Example I-28, (4S)-4-({4-(morpholin-4-yl)-1-[3-(trifluoromethyl)phenyl]-1H-pyrazolo[3,4-d]pyrimidin-6-yl}amino)pyrrolidin-2-one], for which the pIC50 is 7.62.

One may read the pIC50 as the IC50 on a negative log10 scale, so that one unit is a factor of ten. Read a high pIC50 as a small IC50.

The values are drawn from EP3800188A1, “SUBSTITUTED PYRAZOLOPYRIMIDINES AS IRAK4 INHIBITORS” (Bayer AG, priority 2019, dated 2021).
